Experimental findings from patent US11091476B2, “Protein kinase inhibitors, preparation method and medical use thereof” (Gan & Lee Pharmaceuticals, priority 2015, dated 2021) are described below.

What all share (type): biochemical
One experiment deals with CDK9/CyclinD3 (Homo sapiens (Human), UniProt P50750). As to the kind of experiment: Kinase inhibitory activity, ADP-Glo Kinase Assay, CDK9/CyclinD3. On the procedure:
(§1) 1.1 Instrument and Kit Information
(§2) 1.2 Experimental Preparation • 1.2.1 Preparation of Kinase Reaction Buffer I: The 5×Reaction Buffer A (Promega; V307A-C) provided in the kit was mixed and diluted with MILLI-Q® H2O and 0.1 M DTT (dithiothreitol) to give 4× kinase buffer, and then MILLI-Q® H2O was further added to finally formulate the solution into 1× Kinase buffer.
(§3) 1 μl of 10 mM standard substance stock solution was taken and added to 9 μl of kinase reaction buffer I and mixed well; then 90 μl of kinase reaction buffer I was added and mixed well; then 100 μl of kinase reaction buffer I was added and mixed well. The final concentration was 50 μM. • b. 40 μl of kinase reaction buffer II was added into B2 to B10 of a 96-well plate, and 50 μl of the above solution was added into B1; • c. 10 μl of solution was taken from well B1, added into B2, and mixed well; then 10 μl of the resulting solution was taken and added into B3, and dilution was carried out in sequence to B9, so as to obtain control solutions that are diluted by 5-fold sequentially. • (2) Preparation of test compound solution: • a. Test compound solutions at a certain concentration were taken, respectively, diluted with kinase reaction buffer I to a final concentration of 50 μM compound solution; • b. 40 μl of kinase reaction buffer II was added into H2 to H10 of the 96-well plate; and 50 μl of the above solution was added into H1; • c. 10 μl of solution was taken from well H1, added into H2, and mixed well; then 10 μl of the resulting solution was taken and added into H3, and dilution was carried out in sequence to H9, so as to obtain test compound solutions that are diluted by 5-fold sequentially. • 1.2.4 Preparation of a mixed solution of reaction substrate and ATP: • a. Preparation of ATP solution: • 200 μl of 0.1 mM ATP solution: 2 μl of 10 mM ATP was added to 198 μl of kinase reaction buffer I; • 300 μl of 50 μM ATP solution: 150 μl of kinase reaction buffer I was added to 150 μl of the above 0.1 mM ATP solution; • b. Preparation of 300 μl of reaction substrate solution: • 150 μl 1 μg/μl reaction substrate stock solution was added to 150 μl kinase reaction buffer I, and mixed well; • c. The above a/b solutions were mixed to obtain mixed solutions, respectively.
(§4) 1.3 Experimental process: • 1.3.1: 2 μl of compound solutions of various concentrations were taken, added to a 384-well plate, and centrifuged 3 minutes; • 1.3.2: 4 μl of kinase solution was added to each well, centrifuged at 5000 rpm and 18° C. for 10 minutes, and shaken on a plate shaker for 10 minutes; • 1.3.3: 4 μl of mixed solution of substrate and ATP was added to each well, centrifuged at 5000 rpm and 18° C. for 10 minutes, and shaken on a plate shaker at 37° C. for 90 minutes; • 1.3.4: The 384-well plate was taken out, and allowed to stand to room temperature; • 1.3.5: 10 μl of ADP-GLO™ reagent was added to each well, centrifuged at 5000 rpm and 18° C. for 18 minutes, and shaken on a plate shaker at 25° C. for 40 minutes, and then the reaction was stopped; • 1.3.6: 20 μl of kinase detection reagent was added to each well, centrifuged at 5000 rpm and 18° C. for 10 minutes, and shaken on a plate shaker at 25° C. for 30 minutes; and • 1.3.7: M1000pro MICROPLATE READER was used to read […] values.
(§5) The inhibition rate of each compound at each concentration point was calculated by the formula as follows and curve fitting was performed by GraphPad Prism 5 software to obtain the IC50 value.

In another experiment the target is Pim-1 (Homo sapiens (Human), UniProt P11309). As to the kind of experiment: Kinase inhibitory activity on Pim-1. On the procedure: as §2, §3, §4, §5
A further experiment deals with CDK6/CyclinD3 (Homo sapiens (Human), UniProt Q00534). As to the kind of experiment: CDK kinase inhibitory activity, ADP-Glo Kinase Assay, CDK6/CyclinD3. Conditions: for CDK1/CDK6 / CDK9/CDK6 / Pim-1/CDK6: ratio of IC50s; for CDK1/CDK6: selectivity for CDK6 over CDK1; for CDK9/CDK6: selectivity for CDK6 over CDK9; for Pim-1/CDK6: selectivity for CDK6 over Pim-1. On the procedure:
(§6) Measurement of CDK kinase inhibitory activity of the compounds of this disclosure.
(§7) In vitro inhibitory effect of the compounds of the disclosure on CDK (CDK1, CDK4 and CDK6) kinase activity was tested by the following method.
as §1, §2, §3, §4, §5
In general terms: ADP-Glo turns the ADP formed in a reaction into a luminescent signal.

In the next experiment the target is CDK1/CyclinA2 (Homo sapiens (Human), UniProt P06493). As to the kind of experiment: CDK kinase inhibitory activity, ADP-Glo Kinase Assay, CDK1/CyclinA2. How it is done: as §6, §7, §1, §2, §3, §4, §5

As a reminder, the IC50 is the concentration at which inhibition is half-maximal. Low values mean greater potency in that assay, high ones weaker potency in that assay.

Consider `CC1=Nc2c(F)cc(-c3nc(Nc4ccc(N5CCNCC5)cn4)ncc3F)cc2C1(C)C` [Example 1, 5-fluoro-4-(7-fluoro-2,3,3-trimethyl-3H-indol-5-yl)-N-(5-(piperazin-1-yl)pyridin-2-yl)pyrimidine-2-amino], for which the IC50 on CDK9/CyclinD3 came to 245 nM. The same compound came in with an IC50 on Pim-1 of 220 nM. Also, on CDK6/CyclinD3, it took 43 nM to reach half-maximal inhibition (IC50), the CDK1/CDK6 is given as 51.68, the CDK9/CDK6 amounted to 5.69 and the Pim-1/CDK6 was determined as 5.12.
`CCN1CCN(Cc2ccc(Nc3ncc(F)c(-c4cc(F)c5c(c4)C4(CCCC4)C(C)=N5)n3)nc2)CC1` [Example 3]: the IC50 stood at 198 nM at Pim-1 and 79.1 nM on CDK6/CyclinD3.
In turn, `CCN1CCN(Cc2ccc(Nc3ncc(F)c(-c4cc(F)c5c(c4)C(CC)(CC)C(C)=N5)n3)nc2)CC1` [Example 10] showed an IC50 on CDK9/CyclinD3 of 27 nM. Besides, at CDK1/CyclinA2, the IC50 is 436 nM. On CDK6/CyclinD3, the concentration for half-maximal inhibition (IC50) was determined as 47.1 nM, the CDK1/CDK6 turned out to be 9.25 and the CDK9/CDK6 is 0.57.
On to `CC1=Nc2ccc(-c3nc(Nc4ccc(N5CCNCC5)cn4)ncc3F)cc2C12CCCC2` [Example 14, 5-fluoro-4-(2′-methylspiro[cyclopentane-1,3′-indol]-5′-yl)-N-(5-(piperazin-1-yl)pyridin-2-yl)pyrimidine-2-amino], for which the IC50 against Pim-1 came out at 28.6 nM; on CDK1/CyclinA2 it was 234 nM; at CDK6/CyclinD3 it was 4.07 nM. Also, at CDK6/CyclinD3, the CDK1/CDK6 was 57.40. Further, the Pim-1/CDK6 on CDK6/CyclinD3 came out at 7.03.
In the case of `CCC1(C)C(C)=Nc2c(F)cc(-c3nc(Nc4ccc(N5CCN(C)CC5)cn4)ncc3F)cc21` (stereo not shown) [Example 18, 4-(3-ethyl-7-fluoro-2,3-dimethyl-3H-indol-5-yl)-5-fluoro-N-(5-(4-methylpiperazin-1-yl)pyridin-2-yl)pyrimidine-2-amino], at CDK9/CyclinD3, the IC50 came out at 1 nM. On CDK1/CyclinA2, inhibition was half-maximal at 190 nM (IC50). Moreover, on CDK6/CyclinD3, the half-inhibitory concentration (IC50) was found to be 2.74 nM, the CDK1/CDK6 is recorded as 69.29 and the CDK9/CDK6 was 0.36.
In the case of `CC1=Nc2c(F)cc(-c3nc(Nc4ccc(N5CCN(C)CC5)cn4)ncc3F)cc2C12CCCC2` [Example 20, 5-Fluoro-4-(7′-fluoro-2′-methylspiro[cyclopentane-1,3′-indol]-5′-yl)-N-(5-(4-methylpiperazin-1-yl)pyridin-2-yl)pyrimidine-2-amino], the IC50 against CDK9/CyclinD3 is 0.24 nM; against CDK1/CyclinA2, 1440 nM; at CDK6/CyclinD3, 87.6 nM. Also, the CDK1/CDK6 on CDK6/CyclinD3 was 16.49. At CDK6/CyclinD3, the CDK9/CDK6 is reported as 0.003.
For `CCN1CCN(c2ccc(Nc3ncc(F)c(-c4ccc5c(c4)C4(CCCC4)C(C)=N5)n3)nc2)CC1` [Example 22, N-(5-(4-ethylpiperazin-1-yl)pyridin-2-yl)-5-fluoro-4-(2′-methylspiro[cyclopentane-1,3′-indol]-5′-yl)pyrimidine-2-amino] the same measures were 0.5 nM, 915 nM, 52.5 nM, 17.43 and 0.009.
The matching figures for `CC1=Nc2ccc(-c3nc(Nc4ccc(N5CCN(C)CC5)cn4)ncc3F)cc2C12CCCC2` [Example 25, 5-Fluoro-N-(5-(4-methylpiperazin-1-yl)pyridin-2-yl)-4-(2′-methylspiro [cyclopentane-1,3′-indol]-5′-yl)pyrimidine-2-amino]: 1.09 nM, 417 nM, 8.78 nM, 47.51 and 0.12.
On CDK9/CyclinD3, `CCN1CCC(c2ccc(Nc3ncc(F)c(-c4cc(F)c5c(c4)C(C)(CC)C(C)=N5)n3)nc2)CC1` (stereo not shown) [Example 26, 4-(3-ethyl-7-fluoro-2,3-dimethyl-3H-indol-5-yl)-N-(5-(1-ethylpiperidin-4-yl)pyridin-2-yl)-5-fluoropyrimidine-2-amino] yielded an IC50 of 11 nM. At CDK6/CyclinD3, the IC50 is 12.5 nM, the CDK1/CDK6 is recorded as 17.27 and the CDK9/CDK6 is given as 0.88.
For the compound `CC1=Nc2c(F)cc(-c3nc(Nc4ccc(N5CCN(CCO)CC5)cn4)ncc3F)cc2C12CCCC2` [Example 28, 2-(4-(6-((5-fluoro-4-(7′-fluoro-2′-methylspiro[cyclopentane-1,3′-indol]-5′-yl)pyrimidin-2-yl)amino)pyridin-3-yl)piperazin-1-yl)ethanol], the IC50 at CDK9/CyclinD3 worked out at 0.96 nM. On CDK1/CyclinA2, this compound yielded an IC50 of 328 nM. For the same compound, at CDK6/CyclinD3, the IC50 is 6.24 nM, the CDK1/CDK6 amounted to 52.63 and the CDK9/CDK6 is given as 0.15.
For `CC1=Nc2c(F)cc(-c3nc(Nc4ccc(C5CCN(CCO)CC5)cn4)ncc3F)cc2C12CCCC2` [Example 30, 2-(4-(6-((5-fluoro-4-(7′-fluoro-2′-methylspiro[cyclopentane-1,3′-indol]-5′-yl)pyrimidin-2-yl)amino)pyridin-3-yl)piperidin-1-yl)ethanol] the same measures were 0.43 nM, 177 nM, 0.49 nM, 360.37 and 0.88.
Regarding `CC1=Nc2ccc(-c3nc(Nc4ccc(C5CCN(C)CC5)cn4)ncc3F)cc2C1(C)C` [Example 37, 5-Fluoro-N-(5-(1-methylpiperidin-4-yl)pyridin-2-yl)-4-(2,3,3-trimethyl-3H-indol-5-yl)pyrimidine-2-amino], the IC50 on CDK1/CyclinA2 is 73.7 nM; on CDK6/CyclinD3, 22.9 nM. In addition, the CDK1/CDK6 at CDK6/CyclinD3 is 3.22.
The matching figures for `CCC1(CC)C(C)=Nc2c(F)cc(-c3nc(Nc4ccc(C5CCN(C)CC5)cn4)ncc3F)cc21` [Example 38, 4-(3,3-diethyl-7-fluoro-2-methyl-3H-indol-5-yl)-5-fluoro-N-(5-(1-methylpiperidin-4-yl)pyridin-2-yl)pyrimidine-2-amino]: 19.8 nM, 0.2 nM and 99.15.
For `CCC1(C)C(C)=Nc2c(F)cc(-c3nc(Nc4ccc5c(n4)CCN(C(=O)CO)C5)ncc3F)cc21` (stereo not shown) [Example 39, 1-(2-((4-(3-Ethyl-7-fluoro-2,3-dimethyl-3H-indol-5-yl)-5-fluoropyrimidin-2-yl)amino)-7,8-dihydro-1,6-naphthyridine-6 (5H)-yl)-2-hydroxyacetamide] the same measures were 38.5 nM, 5.65 nM and 6.82.
The matching figures for `CC1=Nc2c(F)cc(-c3nc(Nc4ccc5c(n4)CCN(C(=O)CO)C5)ncc3F)cc2C12CCCC2` [Example 40, 1-(2-((5-fluoro-4-(7′-fluoro-2′-methylspiro[cyclopentane-1,3′-indol]-5′-yl)pyrimidin-2-yl)amino)-7,8-dihydro-1,6-naphthyridine-6 (5H)-yl)-2-hydroxyacetamide]: 162 nM, 25 nM and 6.47.
`CC1=Nc2c(F)cc(-c3nc(Nc4ccc(CN5CCN(C)CC5)cn4)ncc3F)cc2C12CCCC2` [Example 43, 5-Fluoro-4-(7′-fluoro-2′-methylspiro[cyclopentane-1,3′-indol]-5′-yl)-N-(5-((4-methylpiperazin-1-yl)methyl)pyridin-2-yl)pyrimidine-2-amino] had an IC50 at CDK1/CyclinA2 of 269 nM. For the same compound, at CDK6/CyclinD3, it took 0.9 nM to reach half-maximal inhibition (IC50) and the CDK1/CDK6 came out at 298.78.
